Test results: patent publication US7297506B2, “Assay for nucleotide triphosphate using a modified nucleoside diphosphate kinase comprising a fluorescent label” (Medical Research Council, priority 1999, dated 2007)
Like-named read-outs stand apart in the source and are kept apart here.

Key:
[1] = Fluorescence quantum yield determination; type: physicochemical; settings: in buffer
Method: There is a shift of 6 nm in the absorbance maxima of the fluorophore between IDCC-NDPK and IDCC-NDPK˜P, but only 2 nm in the emission maxima. The fluorescence quantum yields for the two forms of the labelled enzyme were determined using as reference the known value of 0.83 for Coumarin 314 in ethanol.

[2] = in ethanol, known value; cited from earlier work
human rho protein = assay: Nucleotide exchange and GTP hydrolysis of rho measured with IDCC-NDPK˜P fluorescence; type: biochemical; settings: 2 μM Rho.GDP, 10 μM GTP, 30° C., pH 7.6
Method: The rate of nucleotide exchange from a small G protein, rho (which also has GTPase activity), was determined in solution. The rate of hydrolysis was also obtained indirectly.
Human rho protein was prepared in a form containing tightly-bound GDP. In the presence of excess added GTP, nucleotide exchange occurs such that GDP is released into free solution where it can be measured according to the invention. Once GTP is bound to rho, its hydrolysis is slowly catalysed by the protein at a steady-state rate. This creates more GDP, which is measured once it is released.
Fluorescence emission was recorded for a 200 μl solution containing 20 mM Tris/HCl, pH 7.6, 1 mM MgCl2, 100 mM (NH4)2SO4, 10 μM GTP, and 2 μM IDCC-NDPK˜P. The reaction was started at t=0 by adding 2 μM Rho.GDP. Excitation was at 440 nm with the emission monochromator set to 475 nm. The temperature was 30° C. The data were normalised using the fluorescence change for 1 μM GDP obtained from a titration of IDCC-NDPK˜P with different GTP/GDP ratios. […] The exponential “burst” represents the exchange of GDP bound to rho for GTP. The linear phase represents steady state: exchange of further GTP onto rho is limited by hydrolysis to GDP.

fluorescence quantum yield [1] | Molecule | fluorescence quantum yield [2] | rate constant of exponential phase (exchange of bound GDP for GTP) (human rho protein) [min⁻¹] | slope of linear phase (steady state GTP hydrolysis) (human rho protein) [nM GDP min^−1]
0.52 | CCOC(=O)c1cc2cc3c4c(c2oc1=O)CCCN4CCC3 [Coumarin 314] | 0.83 |  | 
 | Rho.GDP: human rho protein, a small G protein with GTPase activity, prepared with tightly-bound GDP |  | 0.196 | 41.2
